One assay addresses T1, mTOR (Homo sapiens, UniProt P42345).
T1 construct: Jurkat cells were homogenized in a Potter S homogenizer in lysis buffer; endogenous in cells; host or cells: Jurkat, clone E6-1 (ATCC TIB-152) lysate
Put plainly: mTOR kinobeads assay (Jurkat cell lysate, dot blot detection). Format: binding. As to conditions: read-out: Inhibition values (IC50) mTor. In a few lines: (§1)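 IC50 values derive from dose-response curves of each kinase's capture, measured by specific-antibody dot blot and infrared detection after SDS elution. Compound competed with phenylthiazole and phenylmorpholin-chromen ligand beads for endogenous kinase in Jurkat lysate (5 mg/ml protein) during a three-hour cold-room incubation.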

Another assay concerns the target T2, PI3K alpha (PI3Kα) (Homo sapiens, UniProt P42336).
T2 construct: Jurkat cells were homogenized in a Potter S homogenizer in lysis buffer; endogenous in cells; host or cells: Jurkat, clone E6-1 (ATCC TIB-152) lysate
The assay is described as follows: kinobeads assay, PI3K alpha. As to conditions: Jurkat cell lysate, read-out: Inhibition values (IC50) PI3Ka. Format: binding. In a few lines: as §1

The next assay deals with T3, PI3K beta (PI3Kb) (Homo sapiens, UniProt P42338).
T3 construct: Jurkat cells were homogenized in a Potter S homogenizer in lysis buffer; endogenous in cells; host or cells: Jurkat, clone E6-1 (ATCC TIB-152) lysate
Put plainly: kinobeads assay, PI3K beta. As to conditions: Jurkat cell lysate, read-out: Inhibition values (IC50) PI3Kb. Type of assay: binding. The method in brief: as §1

For a further assay, the target named is T4, PI3K gamma (PI3Kg) (Homo sapiens, UniProt P48736).
T4 construct: Jurkat cells were homogenized in a Potter S homogenizer in lysis buffer; endogenous in cells; host or cells: Jurkat, clone E6-1 (ATCC TIB-152) lysate
Put plainly: kinobeads assay, PI3K gamma. Type of assay: binding. As to conditions: Jurkat cell lysate, read-out: Inhibition values (IC50) PI3Kg. In a few lines:
as §1

For the next assay, the target named is T5, PI3K delta (PI3Kd) (Homo sapiens, UniProt O00329).
T5 construct: Jurkat cells were homogenized in a Potter S homogenizer in lysis buffer; endogenous in cells; host or cells: Jurkat, clone E6-1 (ATCC TIB-152) lysate
The assay is described as follows: kinobeads assay, PI3K delta. Format: binding. As to conditions: Jurkat cell lysate, read-out: Inhibition values (IC50) PI3Kd. The method in brief: as §1

Assay [1] has as its target T6, DNA-dependent protein kinase (DNA-PK) (Homo sapiens, UniProt P78527).
T6 construct: Jurkat cells were homogenized in a Potter S homogenizer in lysis buffer; endogenous in cells; host or cells: Jurkat, clone E6-1 (ATCC TIB-152) lysate
The assay is described as follows: kinobeads assay, DNA-PK. Type of assay: binding. As to conditions: Jurkat cell lysate, read-out: Inhibition values (IC50) DNA-PK. In a few lines: as §1

In assay [2] the test system is S6RP serine-240/244 phosphorylation. Put plainly: In vitro phospho-S6 cellular assay (HEK293T/17). Format: cell-based. As to conditions: Homo sapiens; HEK293T/17 cells, 2 hours, pS6RP Ser240/244; read-out: Inhibition values (IC50) pS6. In a few lines:
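HEK293T/17 cells in DMEM with 2% FCS were exposed to 8 compound concentrations (0.1% DMSO) for 2 h at 37 °C, then lysed. pS6RP Ser240/244 or pAkt Ser473 in the lysates was quantified by MSD sandwich electrochemiluminescence. IC50 was obtained by sigmoidal variable-slope nonlinear regression.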

Molecules are shown by their SMILES.

T6 sequence (P78527 whole entry): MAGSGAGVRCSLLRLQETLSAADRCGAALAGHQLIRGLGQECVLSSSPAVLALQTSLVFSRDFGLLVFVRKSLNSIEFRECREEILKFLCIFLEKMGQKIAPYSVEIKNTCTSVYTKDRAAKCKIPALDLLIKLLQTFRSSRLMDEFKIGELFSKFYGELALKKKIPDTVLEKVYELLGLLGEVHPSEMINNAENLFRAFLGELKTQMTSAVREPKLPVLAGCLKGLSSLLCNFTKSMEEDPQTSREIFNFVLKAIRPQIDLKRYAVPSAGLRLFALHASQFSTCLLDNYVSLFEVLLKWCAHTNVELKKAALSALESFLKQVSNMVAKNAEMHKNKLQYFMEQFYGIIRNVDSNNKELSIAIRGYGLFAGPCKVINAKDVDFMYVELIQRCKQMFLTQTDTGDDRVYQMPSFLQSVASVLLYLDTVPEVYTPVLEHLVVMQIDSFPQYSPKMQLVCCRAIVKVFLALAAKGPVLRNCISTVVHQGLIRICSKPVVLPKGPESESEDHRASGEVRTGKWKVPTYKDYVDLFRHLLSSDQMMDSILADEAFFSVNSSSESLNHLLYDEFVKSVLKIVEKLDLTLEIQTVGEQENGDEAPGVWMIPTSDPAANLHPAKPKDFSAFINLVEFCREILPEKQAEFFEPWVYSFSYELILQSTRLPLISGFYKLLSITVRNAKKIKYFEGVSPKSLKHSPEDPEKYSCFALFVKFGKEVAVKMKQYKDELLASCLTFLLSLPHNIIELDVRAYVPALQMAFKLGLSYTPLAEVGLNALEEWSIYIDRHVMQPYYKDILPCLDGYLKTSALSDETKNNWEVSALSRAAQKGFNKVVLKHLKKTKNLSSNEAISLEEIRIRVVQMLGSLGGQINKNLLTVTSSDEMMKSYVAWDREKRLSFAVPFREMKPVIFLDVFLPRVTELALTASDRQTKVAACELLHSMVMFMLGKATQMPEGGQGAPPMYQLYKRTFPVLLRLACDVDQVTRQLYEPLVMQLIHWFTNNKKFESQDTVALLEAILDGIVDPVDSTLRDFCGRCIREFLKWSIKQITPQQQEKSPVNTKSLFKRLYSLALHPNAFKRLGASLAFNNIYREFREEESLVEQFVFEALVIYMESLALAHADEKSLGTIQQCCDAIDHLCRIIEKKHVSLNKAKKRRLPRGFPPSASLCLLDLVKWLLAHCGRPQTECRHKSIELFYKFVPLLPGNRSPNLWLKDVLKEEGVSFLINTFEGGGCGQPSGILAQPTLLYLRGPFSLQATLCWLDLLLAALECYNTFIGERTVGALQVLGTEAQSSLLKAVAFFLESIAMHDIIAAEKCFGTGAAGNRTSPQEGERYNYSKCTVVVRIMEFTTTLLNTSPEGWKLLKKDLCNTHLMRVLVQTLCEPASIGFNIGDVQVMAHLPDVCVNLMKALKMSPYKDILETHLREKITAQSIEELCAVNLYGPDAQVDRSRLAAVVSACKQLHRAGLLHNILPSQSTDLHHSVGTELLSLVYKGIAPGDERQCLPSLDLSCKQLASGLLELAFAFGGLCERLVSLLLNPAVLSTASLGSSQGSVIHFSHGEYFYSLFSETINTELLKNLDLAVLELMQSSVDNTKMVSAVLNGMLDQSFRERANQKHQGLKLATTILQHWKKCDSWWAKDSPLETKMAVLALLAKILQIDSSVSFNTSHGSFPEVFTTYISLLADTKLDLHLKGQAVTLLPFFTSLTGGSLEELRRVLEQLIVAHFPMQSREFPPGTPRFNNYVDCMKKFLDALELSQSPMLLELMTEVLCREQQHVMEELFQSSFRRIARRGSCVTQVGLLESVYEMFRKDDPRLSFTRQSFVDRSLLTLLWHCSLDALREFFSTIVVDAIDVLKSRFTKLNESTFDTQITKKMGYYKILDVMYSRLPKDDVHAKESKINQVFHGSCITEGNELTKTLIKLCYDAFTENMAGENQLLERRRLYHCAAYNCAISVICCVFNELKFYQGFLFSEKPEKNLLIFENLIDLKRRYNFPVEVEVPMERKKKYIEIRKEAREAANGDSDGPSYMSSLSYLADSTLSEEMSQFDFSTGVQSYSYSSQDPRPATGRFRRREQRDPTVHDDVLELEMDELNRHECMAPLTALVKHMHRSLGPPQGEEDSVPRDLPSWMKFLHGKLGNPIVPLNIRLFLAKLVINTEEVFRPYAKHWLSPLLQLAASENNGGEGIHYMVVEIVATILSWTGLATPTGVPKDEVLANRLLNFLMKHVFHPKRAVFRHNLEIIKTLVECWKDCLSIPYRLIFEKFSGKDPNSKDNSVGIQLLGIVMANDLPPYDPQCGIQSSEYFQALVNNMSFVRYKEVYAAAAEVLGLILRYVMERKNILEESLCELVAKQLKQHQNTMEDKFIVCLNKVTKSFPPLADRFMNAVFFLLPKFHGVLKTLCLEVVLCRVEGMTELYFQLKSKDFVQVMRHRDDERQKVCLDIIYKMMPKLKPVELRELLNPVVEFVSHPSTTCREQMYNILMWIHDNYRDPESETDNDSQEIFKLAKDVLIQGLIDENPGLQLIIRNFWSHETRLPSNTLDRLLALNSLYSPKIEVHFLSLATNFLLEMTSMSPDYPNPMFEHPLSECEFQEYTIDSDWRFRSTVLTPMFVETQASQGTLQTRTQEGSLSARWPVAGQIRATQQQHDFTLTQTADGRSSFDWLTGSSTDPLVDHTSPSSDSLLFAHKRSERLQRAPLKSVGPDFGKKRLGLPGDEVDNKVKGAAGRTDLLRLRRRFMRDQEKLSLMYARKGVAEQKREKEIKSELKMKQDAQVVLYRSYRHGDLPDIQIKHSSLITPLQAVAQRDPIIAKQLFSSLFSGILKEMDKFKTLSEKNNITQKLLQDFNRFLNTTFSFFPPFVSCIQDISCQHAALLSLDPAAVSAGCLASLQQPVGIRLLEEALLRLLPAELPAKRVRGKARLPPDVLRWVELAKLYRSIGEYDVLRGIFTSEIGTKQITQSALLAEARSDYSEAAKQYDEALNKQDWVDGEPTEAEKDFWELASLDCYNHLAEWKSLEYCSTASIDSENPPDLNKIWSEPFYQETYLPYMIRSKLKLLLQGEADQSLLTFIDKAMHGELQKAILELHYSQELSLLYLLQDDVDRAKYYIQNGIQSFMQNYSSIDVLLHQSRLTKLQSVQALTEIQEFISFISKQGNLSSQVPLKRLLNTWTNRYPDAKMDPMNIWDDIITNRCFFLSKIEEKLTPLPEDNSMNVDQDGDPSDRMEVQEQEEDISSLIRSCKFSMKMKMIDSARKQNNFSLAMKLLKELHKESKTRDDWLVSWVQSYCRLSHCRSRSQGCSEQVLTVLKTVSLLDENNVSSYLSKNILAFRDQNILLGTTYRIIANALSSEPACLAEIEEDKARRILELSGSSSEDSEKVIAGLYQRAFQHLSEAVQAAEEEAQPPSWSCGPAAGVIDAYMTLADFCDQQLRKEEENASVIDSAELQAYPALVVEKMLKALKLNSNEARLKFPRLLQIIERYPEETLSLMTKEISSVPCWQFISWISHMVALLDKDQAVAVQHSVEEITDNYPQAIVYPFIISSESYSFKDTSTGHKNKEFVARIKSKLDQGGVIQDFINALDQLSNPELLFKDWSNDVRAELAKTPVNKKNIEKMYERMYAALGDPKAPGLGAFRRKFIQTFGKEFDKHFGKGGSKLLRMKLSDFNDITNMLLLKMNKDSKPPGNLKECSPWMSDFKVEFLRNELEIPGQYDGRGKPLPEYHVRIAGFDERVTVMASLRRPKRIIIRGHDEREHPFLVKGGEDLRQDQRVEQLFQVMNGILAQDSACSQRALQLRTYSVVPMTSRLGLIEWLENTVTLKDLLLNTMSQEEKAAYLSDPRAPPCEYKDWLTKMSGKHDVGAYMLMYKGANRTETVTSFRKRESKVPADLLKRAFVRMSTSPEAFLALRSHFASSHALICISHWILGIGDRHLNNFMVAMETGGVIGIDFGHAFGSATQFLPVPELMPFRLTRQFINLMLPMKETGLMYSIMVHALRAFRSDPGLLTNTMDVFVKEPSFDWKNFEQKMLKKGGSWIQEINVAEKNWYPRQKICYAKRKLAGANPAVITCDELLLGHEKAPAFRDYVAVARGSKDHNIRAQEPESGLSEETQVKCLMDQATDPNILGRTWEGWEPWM

Broadly, the IC50 is the concentration at which inhibition is half-maximal. Take `C[C@H]1COCCN1c1nc(-c2ccc(NC(=O)Nc3ccc(CO)cc3)cc2)nc(-c2ccccc2S(C)(=O)=O)n1` [Example 25, (S)-1-(4-(hydroxymethyl)phenyl)-3-(4-(4-(3-methylmorpholino)-6-(2-(methylsulfonyl)phenyl)-1,3,5-triazin-2-yl)phenyl)urea]: the IC50 on mTOR was 0.1 to 1 µM; at PI3K alpha (PI3Kα) it was above 10 µM; on PI3K beta (PI3Kb), above 10 µM; on PI3K gamma (PI3Kg) it was above 10 µM; on PI3K delta (PI3Kd) it was above 10 µM; in assay [1], above 10 µM. Besides, the IC50 in assay [2] is below 0.1 µM.
In the case of `C[C@H]1COCCN1c1nc(-c2ccc(NC(=O)NC3CC3)cc2)nc(-c2ccccc2S(=O)(=O)N2CCCC2)n1` [Example 26, (S)-1-cyclopropyl-3-(4-(4-(3-methylmorpholino)-6-(2-(pyrrolidin-1-ylsulfonyl)phenyl)-1,3,5-triazin-2-yl)phenyl)urea], the IC50 on mTOR was 0.1 to 1 µM; on PI3K alpha (PI3Kα), above 10 µM; on PI3K beta (PI3Kb) it was above 10 µM; on PI3K gamma (PI3Kg), above 10 µM; at PI3K delta (PI3Kd), above 10 µM; in assay [1], above 10 µM. The IC50 in assay [2] is below 0.1 µM.
On to `C[C@H]1COCCN1c1nc(-c2ccc(NC(=O)NC3CCC3)cc2)nc(-c2ccccc2S(C)(=O)=O)n1` [Example 27, (S)-1-cyclobutyl-3-(4-(4-(3-methylmorpholino)-6-(2-(methylsulfonyl)phenyl)-1,3,5-triazin-2-yl)phenyl)urea], for which the IC50 was 0.1 to 1 µM at mTOR; above 10 µM on PI3K alpha (PI3Kα); above 10 µM at PI3K beta (PI3Kb); above 10 µM on PI3K gamma (PI3Kg); above 10 µM on PI3K delta (PI3Kd); above 10 µM in assay [1]. For the same compound, the IC50 in assay [2] was below 0.1 µM.
Consider `C[C@H]1COCCN1c1nc(-c2ccc(NC(=O)NC3CC3(F)F)cc2)nc(-c2ccccc2S(C)(=O)=O)n1` (stereo partly drawn) [Example 29, 1-(2,2-difluorocyclopropyl)-3-(4-(4-((S)-3-methylmorpholino)-6-(2-(methylsulfonyl)phenyl)-1,3,5-triazin-2-yl)phenyl)urea], for which the 50% inhibitory concentration (IC50) at mTOR is 0.1 to 1 µM; on PI3K alpha (PI3Kα), above 10 µM; on PI3K beta (PI3Kb), above 10 µM; on PI3K gamma (PI3Kg), above 10 µM; at PI3K delta (PI3Kd), above 10 µM; in assay [1] it was above 10 µM. The half-inhibitory concentration (IC50) in assay [2] was below 0.1 µM.
`C[C@H]1COCCN1c1nc(-c2ccc(NC(=O)NCC(F)(F)F)cc2)nc(-c2ccccc2S(C)(=O)=O)n1` [Example 32, (S)-1-(4-(4-(3-methylmorpholino)-6-(2-(methylsulfonyl)phenyl)-1,3,5-triazin-2-yl)phenyl)-3-(2,2,2-trifluoroethyl)urea]: the IC50 was 0.1 to 1 µM at mTOR; above 10 µM at PI3K alpha (PI3Kα); above 10 µM on PI3K beta (PI3Kb); above 10 µM on PI3K gamma (PI3Kg); above 10 µM at PI3K delta (PI3Kd); above 10 µM in assay [1]. Also, the IC50 in assay [2] is below 0.1 µM.
Take `C[C@H]1COCCN1c1nc(-c2ccc(NC(=O)NCC(O)C(F)(F)F)cc2)nc(-c2ccccc2S(C)(=O)=O)n1` (stereo partly drawn) [Example 33, 1-(4-(4-((S)-3-methylmorpholino)-6-(2-(methylsulfonyl)phenyl)-1,3,5-triazin-2-yl)phenyl)-3-(3,3,3-trifluoro-2-hydroxypropyl)urea]: the IC50 at mTOR is 0.1 to 1 µM; on PI3K alpha (PI3Kα) it was above 10 µM; on PI3K beta (PI3Kb), above 10 µM; at PI3K gamma (PI3Kg), above 10 µM; on PI3K delta (PI3Kd), above 10 µM; in assay [1], above 10 µM. Besides, the IC50 in assay [2] is 0.1 to 1 µM.
As to `C[C@H]1COCCN1c1nc(-c2ccc(NC(=O)NC3CCOC3)cc2)nc(-c2ccccc2S(C)(=O)=O)n1` (stereo partly drawn) [Example 34, 1-(4-(4-((S)-3-methylmorpholino)-6-(2-(methylsulfonyl)phenyl)-1,3,5-triazin-2-yl)phenyl)-3-(tetrahydrofuran-3-yl)urea], the IC50 is 0.1 to 1 µM on mTOR; above 10 µM on PI3K alpha (PI3Kα); above 10 µM at PI3K beta (PI3Kb); above 10 µM on PI3K gamma (PI3Kg); above 10 µM on PI3K delta (PI3Kd); above 10 µM in assay [1]. Moreover, the IC50 in assay [2] lay within 0.1 to 1 µM.

The values above are taken from patent US9175011B2, “Morpholino substituted urea or carbamate derivatives as MTOR inhibitors” (CELLZOME LIMITED, priority 2011, dated 2015).
